Key:
[1] = target: GDP-bound NRAS wild-type protein (Homo sapiens, UniProt P01111); test: Binding to NRAS by surface plasmon resonance (SPR), Single Cycle Kinetics; conditions: SPR; for NRAS/KRAS (ratio of KD value for GDP-bound NRAS wild-type protein to KD value for KRAS): KD ratio class
[2] = target: GDP-bound HRAS wild-type protein (Homo sapiens, UniProt P01112); test: Binding to HRAS by surface plasmon resonance (SPR), Single Cycle Kinetics; conditions: SPR; for HRAS/KRAS (ratio of KD value for GDP-bound HRAS wild-type protein to KD value for KRAS): KD ratio class
Chain of GDP-bound HRAS wild-type protein (P01112 whole entry): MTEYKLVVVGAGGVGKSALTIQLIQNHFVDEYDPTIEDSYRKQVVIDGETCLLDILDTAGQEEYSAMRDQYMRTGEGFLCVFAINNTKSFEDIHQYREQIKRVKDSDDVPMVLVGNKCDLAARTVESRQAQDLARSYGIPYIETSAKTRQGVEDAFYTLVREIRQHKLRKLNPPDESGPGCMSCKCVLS

Chain of GDP-bound NRAS wild-type protein (P01111 whole entry): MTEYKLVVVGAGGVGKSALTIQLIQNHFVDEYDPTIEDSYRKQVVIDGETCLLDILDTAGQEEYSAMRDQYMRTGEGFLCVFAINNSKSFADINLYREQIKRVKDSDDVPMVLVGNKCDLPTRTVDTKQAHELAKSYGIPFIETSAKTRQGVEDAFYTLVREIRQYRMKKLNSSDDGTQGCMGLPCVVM

Compound	NRAS/KRAS (ratio of KD value with respect to NRAS to KD value with respect to KRAS) ([1]; KD ratio, GDP-bound NRAS wild-type vs GDP-bound KRAS wild-type)	HRAS/KRAS (ratio of KD value with respect to HRAS to KD value with respect to KRAS) ([2]; KD ratio, GDP-bound HRAS wild-type vs GDP-bound KRAS wild-type)	NRAS/KRAS (ratio of KD value for GDP-bound NRAS wild-type protein to KD value for KRAS) [1]	HRAS/KRAS (ratio of KD value for GDP-bound HRAS wild-type protein to KD value for KRAS) [2]
CCO[C@@H]1C[C@H]2C(=O)NC3(CCC3)C(=O)N(C)[C@@H](C(CC)CC)C(=O)N(C)[C@H](C(=O)N(C)C)CC(=O)N(C)[C@@H](CC(C)C)C(=O)N[C@@H]([C@@H](C)CC)C(=O)N(C)CC(=O)N(C)[C@H]3C/C=C\CCN(C3=O)[C@@H](Cc3ccc(C(F)(F)F)cc3)C(=O)N(C)CC(=O)N[C@@H](CCc3cc(F)c(C(F)(F)F)c(F)c3)C(=O)N2C1 [PP1201]	AA (a compound having 20 or more is denoted as AA)	A (a compound having 10 or more and less than 20 is denoted as A)	–	–
CCO[C@@H]1C[C@H]2C(=O)NC3(CCC3)C(=O)N(C)[C@@H](C3CCCC3)C(=O)N(C)[C@H](C(=O)N(C)CC)CC(=O)N(C)[C@@H](CC(C)C)C(=O)N[C@@H]([C@@H](C)CC)C(=O)N(C)CC(=O)N(C)[C@H]3C/C=C\CCN(C3=O)[C@@H](Cc3ccc(C(F)(F)F)cc3)C(=O)N(C)CC(=O)N[C@@H](CCc3cc(F)c(C(F)(F)F)c(F)c3)C(=O)N2C1 [PP1300]	–	–	A (a compound having 10 or more and less than 20 is denoted as A)	A (a compound having 10 or more and less than 20 is denoted as A)
CCO[C@@H]1C[C@H]2C(=O)NC3(CCC3)C(=O)N(C)[C@@H](C3CCCC3)C(=O)N(C)[C@H](C(=O)N(C)CC)CC(=O)N(C)[C@@H](CC3CC3)C(=O)N[C@@H]([C@@H](C)CC)C(=O)N(C)CC(=O)N(C)[C@H]3C/C=C\CCN(C3=O)[C@@H](Cc3ccc(C(F)(F)F)cc3)C(=O)N(C)CC(=O)N[C@@H](CCc3cc(F)c(C(F)(F)F)c(F)c3)C(=O)N2C1 [PP1301]	–	–	A (a compound having 10 or more and less than 20 is denoted as A)	A (a compound having 10 or more and less than 20 is denoted as A)
CCO[C@@H]1C[C@H]2C(=O)NC3(CCC3)C(=O)N(C)[C@@H](C3CCCC3)C(=O)N(C)[C@H](C(=O)N(C)CC)CC(=O)N(C)[C@@H](C)C(=O)N[C@@H]([C@@H](C)CC)C(=O)N(C)CC(=O)N(C)[C@H]3C/C=C\CCN(C3=O)[C@@H](Cc3ccc(C(F)(F)F)cc3)C(=O)N(C)CC(=O)N[C@@H](CCc3cc(F)c(C(F)(F)F)c(F)c3)C(=O)N2C1 [PP1302]	–	–	A (a compound having 10 or more and less than 20 is denoted as A)	A (a compound having 10 or more and less than 20 is denoted as A)
CCO[C@@H]1C[C@H]2C(=O)NC3(CCC3)C(=O)N(C)[C@@H](C3CCCC3)C(=O)N(C)[C@H](C(=O)N(C)CC)CC(=O)N(C)[C@@H](CC(F)F)C(=O)N[C@@H]([C@@H](C)CC)C(=O)N(C)CC(=O)N(C)[C@H]3C/C=C\CCN(C3=O)[C@@H](Cc3ccc(C(F)(F)F)cc3)C(=O)N(C)CC(=O)N[C@@H](CCc3cc(F)c(C(F)(F)F)c(F)c3)C(=O)N2C1 [PP1303]	–	–	AA (a compound having 20 or more is denoted as AA)	A (a compound having 10 or more and less than 20 is denoted as A)
CCC[C@H]1C(=O)N[C@@H]([C@@H](C)CC)C(=O)N(C)CC(=O)N(C)[C@H]2C/C=C\CCN(C2=O)[C@@H](Cc2ccc(C(F)(F)F)cc2)C(=O)N(C)CC(=O)N[C@@H](CCc2cc(F)c(C(F)(F)F)c(F)c2)C(=O)N2C[C@H](OCC)C[C@H]2C(=O)NC2(CCC2)C(=O)N(C)[C@@H](C2CCCC2)C(=O)N(C)[C@H](C(=O)N(C)CC)CC(=O)N1C [PP1304]	–	–	A (a compound having 10 or more and less than 20 is denoted as A)	A (a compound having 10 or more and less than 20 is denoted as A)
CCO[C@@H]1C[C@H]2C(=O)NC3(CCC3)C(=O)N(C)[C@@H](C3CCCC3)C(=O)N(C)[C@H](C(=O)N(CC)CC)CC(=O)N(C)[C@@H](CC)C(=O)N[C@@H]([C@@H](C)CC)C(=O)N(C)CC(=O)N(C)[C@H]3C/C=C\CCN(C3=O)[C@@H](Cc3ccc(C(F)(F)F)cc3)C(=O)N(C)CC(=O)N[C@@H](CCc3cc(F)c(C(F)(F)F)c(F)c3)C(=O)N2C1 [PP1305]	–	–	AA (a compound having 20 or more is denoted as AA)	A (a compound having 10 or more and less than 20 is denoted as A)
CCO[C@@H]1C[C@H]2C(=O)NC3(CCC3)C(=O)N(C)[C@@H](C3CCCC3)C(=O)N(C)[C@H](C(=O)N(CC)CC)CC(=O)N(C)[C@@H](CC(C)C)C(=O)N[C@@H]([C@@H](C)CC)C(=O)N(C)CC(=O)N(C)[C@H]3C/C=C\CCN(C3=O)[C@@H](Cc3ccc(C(F)(F)F)cc3)C(=O)N(C)CC(=O)N[C@@H](CCc3cc(F)c(C(F)(F)F)c(F)c3)C(=O)N2C1 [PP1306]	–	–	AA (a compound having 20 or more is denoted as AA)	A (a compound having 10 or more and less than 20 is denoted as A)
CCO[C@@H]1C[C@H]2C(=O)NC3(CCC3)C(=O)N(C)[C@@H](C3CCCC3)C(=O)N(C)[C@H](C(=O)N(CC)CC)CC(=O)N(C)[C@@H](C)C(=O)N[C@@H]([C@@H](C)CC)C(=O)N(C)CC(=O)N(C)[C@H]3C/C=C\CCN(C3=O)[C@@H](Cc3ccc(C(F)(F)F)cc3)C(=O)N(C)CC(=O)N[C@@H](CCc3cc(F)c(C(F)(F)F)c(F)c3)C(=O)N2C1 [PP1308]	–	–	A (a compound having 10 or more and less than 20 is denoted as A)	A (a compound having 10 or more and less than 20 is denoted as A)
CCO[C@@H]1C[C@H]2C(=O)NC3(CCC3)C(=O)N(C)[C@@H](C3CCCC3)C(=O)N(C)[C@H](C(=O)N(CC)CC)CC(=O)N(C)[C@@H](CC(F)F)C(=O)N[C@@H]([C@@H](C)CC)C(=O)N(C)CC(=O)N(C)[C@H]3C/C=C\CCN(C3=O)[C@@H](Cc3ccc(C(F)(F)F)cc3)C(=O)N(C)CC(=O)N[C@@H](CCc3cc(F)c(C(F)(F)F)c(F)c3)C(=O)N2C1 [PP1309]	–	–	A (a compound having 10 or more and less than 20 is denoted as A)	A (a compound having 10 or more and less than 20 is denoted as A)
CCC[C@H]1C(=O)N[C@@H]([C@@H](C)CC)C(=O)N(C)CC(=O)N(C)[C@H]2C/C=C\CCN(C2=O)[C@@H](Cc2ccc(C(F)(F)F)cc2)C(=O)N(C)CC(=O)N[C@@H](CCc2cc(F)c(C(F)(F)F)c(F)c2)C(=O)N2C[C@H](OCC)C[C@H]2C(=O)NC2(CCC2)C(=O)N(C)[C@@H](C2CCCC2)C(=O)N(C)[C@H](C(=O)N(CC)CC)CC(=O)N1C [PP1310]	–	–	AA (a compound having 20 or more is denoted as AA)	A (a compound having 10 or more and less than 20 is denoted as A)
CCC[C@H]1C(=O)N[C@@H]([C@@H](C)CC)C(=O)N(C)CC(=O)N(C)[C@H]2C/C=C\CCN(C2=O)[C@@H](Cc2ccc(C(F)(F)F)cc2)C(=O)N(C)CC(=O)N[C@@H](CCc2cc(F)c(C(F)(F)F)c(F)c2)C(=O)N2C[C@H](OCC)C[C@H]2C(=O)NC2(CCC2)C(=O)N(C)[C@@H](C2CCCC2)C(=O)N(C)[C@H](C(=O)N2CC3CCC(C2)O3)CC(=O)N1C [PP1315]	–	–	AA (a compound having 20 or more is denoted as AA)	A (a compound having 10 or more and less than 20 is denoted as A)
CCO[C@@H]1C[C@H]2C(=O)NC3(CCC3)C(=O)N(C)[C@@H](C3CCCC3)C(=O)N(C)[C@H](C(=O)N(C)CCOC)CC(=O)N(C)[C@@H](CC)C(=O)N[C@@H]([C@@H](C)CC)C(=O)N(C)CC(=O)N(C)[C@H]3C/C=C\CCN(C3=O)[C@@H](Cc3ccc(C(F)(F)F)cc3)C(=O)N(C)CC(=O)N[C@@H](CCc3cc(F)c(C(F)(F)F)c(F)c3)C(=O)N2C1 [PP1316]	–	–	A (a compound having 10 or more and less than 20 is denoted as A)	A (a compound having 10 or more and less than 20 is denoted as A)
CCO[C@@H]1C[C@H]2C(=O)NC3(CCC3)C(=O)N(C)[C@@H](C3CCCC3)C(=O)N(C)[C@H](C(=O)N(C)CCOC)CC(=O)N(C)[C@@H](CC(C)C)C(=O)N[C@@H]([C@@H](C)CC)C(=O)N(C)CC(=O)N(C)[C@H]3C/C=C\CCN(C3=O)[C@@H](Cc3ccc(C(F)(F)F)cc3)C(=O)N(C)CC(=O)N[C@@H](CCc3cc(F)c(C(F)(F)F)c(F)c3)C(=O)N2C1 [PP1317]	–	–	A (a compound having 10 or more and less than 20 is denoted as A)	B (a compound having 3 or more and less than 10 is denoted as B)
CCO[C@@H]1C[C@H]2C(=O)NC3(CCC3)C(=O)N(C)[C@@H](C3CCCC3)C(=O)N(C)[C@H](C(=O)N(C)CCOC)CC(=O)N(C)[C@@H](CC3CC3)C(=O)N[C@@H]([C@@H](C)CC)C(=O)N(C)CC(=O)N(C)[C@H]3C/C=C\CCN(C3=O)[C@@H](Cc3ccc(C(F)(F)F)cc3)C(=O)N(C)CC(=O)N[C@@H](CCc3cc(F)c(C(F)(F)F)c(F)c3)C(=O)N2C1 [PP1318]	–	–	A (a compound having 10 or more and less than 20 is denoted as A)	A (a compound having 10 or more and less than 20 is denoted as A)

— patent US20250230193A1, “CYCLIC COMPOUND HAVING SELECTIVE KRAS INHIBITORY EFFECT ON HRAS AND NRAS” (CHUGAI SEIYAKU KABUSHIKI KAISHA, priority 2022, published 2025)
